In patent US5789434A, “Derivatives of substituted 4-biarylbutyric acid as matrix metalloprotease inhibitors” (priority 1995, dated 1998):
Counter-ions that a name gives are not always drawn. Like-named read-outs stand apart in the source and are kept apart here.

What was measured:
[1] = biological target: T1, MMP-3 (Homo sapiens, UniProt P08254); experiment: Primary Thiopeptilide MMP-3 Inhibition Assay; assay type: biochemical; details: for IC50: pH 6.5, 13 nM stromelysin, x (n) = average of n determinations, read-out: MMP-3 Thiopep. IC50; for inhibition at 5 µM: read-out: MMP-3 Thiopep. % inhibition
T1 construct: Truncated Prostromelysin-257 was expressed in a soluble form in E.coli; made in house; host or cells: E. coli
T1 sequence (P08254 100-274 limits assumed): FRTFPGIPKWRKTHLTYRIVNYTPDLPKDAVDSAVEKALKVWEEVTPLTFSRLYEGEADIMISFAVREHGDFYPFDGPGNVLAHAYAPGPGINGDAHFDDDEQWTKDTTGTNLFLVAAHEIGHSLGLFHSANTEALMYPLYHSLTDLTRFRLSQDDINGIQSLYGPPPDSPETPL
Procedure: Enzyme: recombinant stromelysin expressed in E.coli and purified as described above. […] The protocols for the assay of compounds as stromelysin inhibitors was the same as that used for MMP-9 except that the assay buffer was 50 mM MES, pH 6.5 containing 150 mM NaCl, 10 mM CaCl2, 0.005% Brij, and 1% DMSO.

[2] = biological target: T2, MMP-9 (Homo sapiens, UniProt P14780); experiment: Thiopeptilide MMP-9 Inhibition Assay; assay type: biochemical; details: for IC50: pH 6.5, x (n) = average of n determinations, read-out: MMP-9: Thiopep. IC50; for inhibition at 5 µM: read-out: MMP-9: Thiopep. % inhibition
T2 construct: from tissue; host or cells: human polymorphonuclear leukocytes (PMN) from whole blood (New York Blood Center), PMA-stimulated supernatant
T2 sequence (P14780 107-707 limits assumed): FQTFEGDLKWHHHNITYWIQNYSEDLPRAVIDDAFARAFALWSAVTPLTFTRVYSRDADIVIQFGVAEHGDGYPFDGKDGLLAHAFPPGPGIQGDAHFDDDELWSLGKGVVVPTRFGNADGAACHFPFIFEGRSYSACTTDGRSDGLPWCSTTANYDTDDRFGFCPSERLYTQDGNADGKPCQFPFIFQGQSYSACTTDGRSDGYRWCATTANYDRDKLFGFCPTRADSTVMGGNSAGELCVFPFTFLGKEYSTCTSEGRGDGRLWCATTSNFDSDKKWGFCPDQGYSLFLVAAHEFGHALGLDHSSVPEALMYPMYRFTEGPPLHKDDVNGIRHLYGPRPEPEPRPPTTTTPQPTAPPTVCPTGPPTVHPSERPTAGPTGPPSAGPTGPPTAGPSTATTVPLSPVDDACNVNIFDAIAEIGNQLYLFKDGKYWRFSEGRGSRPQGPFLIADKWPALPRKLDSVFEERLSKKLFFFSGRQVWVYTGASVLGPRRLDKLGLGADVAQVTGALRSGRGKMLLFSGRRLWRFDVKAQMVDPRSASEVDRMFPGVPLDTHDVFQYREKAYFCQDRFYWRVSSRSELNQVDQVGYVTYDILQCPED

Compound | IC50 [1] | IC50 [2] | inhibition at 5 µM [1] | inhibition at 5 µM ([2]; at 5 μM) | inhibition at 5 µM [2]
O=C(CC(CSc1cccc(F)c1)C(=O)O)c1ccc(-c2ccc(Cl)cc2)cc1 (stereo not drawn) [Example 243, [1,1'-Biphenyl]-4-butanoic acid, 4'-chloro-α[[(3-fluorophenyl)thio]methyl]-γ-oxo-] | 360 nM | 850 nM |  |  | 
CNC(=O)c1ccccc1SCC(CC(=O)c1ccc(-c2ccc(Cl)cc2)cc1)C(=O)O (stereo not drawn) [Example 250, [1,1'-Biphenyl]-4-butanoic acid, 4'-chloro-α-[[[2-[(methylamino)carbonyl]phenyl]thio]methyl]-γ-oxo-] | 125 nM | 800 nM |  |  | 
O=C(CC(Sc1ccccc1)C(=O)O)c1ccc(-c2ccc(Cl)cc2)cc1 (stereo not drawn) [Example 251, [1,1'-Biphenyl]-4-butanoic acid, 4'-chloro-γ-oxo-α-(phenylthio)-] | 640 nM | 7500 nM |  |  | 
O=C(CC(SCc1ccccc1)C(=O)O)c1ccc(-c2ccc(Cl)cc2)cc1 (stereo not drawn) [Example 252, [1,1'-Biphenyl]-4-butanoic acid, 4'-chloro-γ-oxo-α-[(phenylmethyl)thio]-] | 293 nM | 2900 nM |  |  | 
CC(=O)SCC(CC(=O)c1ccc(C)cc1)C(=O)O (stereo not drawn) [Example 253, Benzenebutanoic acid, α-[(acetylthio)methyl]-4-methyl-γ-oxo-, reference compound] |  |  | 0% | 21% | 
O=C(O)CC(CSc1cccs1)C(=O)c1ccc(-c2ccc(Cl)cc2)cc1 (stereo not drawn) [Example 255, [1,1'-Biphenyl]-4-butanoic acid, 4'-chloro-γ-oxo-β-[(2-thienylthio)methyl]-] | 950 nM | 2000 nM |  |  | 
CC(C)(C)C(=O)SCC(CC(=O)O)C(=O)c1ccc(-c2ccc(Cl)cc2)cc1 (stereo not drawn) [Example 256, [1,1'-Biphenyl]-4-butanoic acid, 4'-chloro-β-[[(2,2-dimethyl-1-oxopropyl)thio]methyl]-γ-oxo-] | 600 nM | 3000 nM |  |  | 
O=C(O)CC(CSc1ccccc1)C(=O)c1ccc(-c2ccc(Cl)cc2)cc1 (stereo not drawn) [Example 257, [1,1'-Biphenyl]-4-butanoic acid, 4'-chloro-γ-oxo-β-[(phenylthio)methyl]-] | 800 nM | 2100 nM |  |  | 
CC(=O)SCC(CC(=O)O)C(=O)c1ccc(-c2ccc(Cl)cc2)cc1 (stereo not drawn) [Example 258, [1,1'-Biphenyl]-4-butanoic acid, β-[(acetylthio)methyl]-4'-chloro-γ-oxo-, reference compound] | 820 nM | 2100 nM |  |  | 
O=C(CC(C(=O)O)N1CCSCC1)c1ccc(-c2ccc(Cl)cc2)cc1 (centres unmarked) [Example 259] | 2600 nM |  |  | 37% | 
O=C(CC(NC(c1ccccc1)c1ccccc1)C(=O)O)c1ccc(-c2ccc(Cl)cc2)cc1 (stereo not drawn) [Example 260, [1,1'-Biphenyl]-4-butanoic acid, 4'-chloro-α-[(diphenylmethyl)amino]-γ-oxo-, hydrochloride] | 520 nM |  |  |  | 16%
O=C(CC(CCCN1C(=O)c2ccccc2C1=O)C(=O)O)c1ccc(-c2ccc(Cl)cc2)cc1 (stereo not drawn) [Example 262, 2H-Isoindole-2-pentanoic acid, α-[2-(4'-chloro[1,1'-biphenyl]-4-yl)-2-oxoethyl]-1,3-dihydro-1,3-dioxo-] | 95 nM | 76 nM |  |  | 
CN(C)CCC(CC(=O)c1ccc(-c2ccc(Cl)cc2)cc1)C(=O)O (stereo not drawn) [Example 263, [1,1'-Biphenyl]-4-butanoic acid, 4'-chloro-α-[2-(dimethylamino)ethyl]-γ-oxo-, hydrochloride] |  |  | 33% | 21% | 
CCN(CC)CCCC(CC(=O)c1ccc(-c2ccc(Cl)cc2)cc1)C(=O)O (stereo not drawn) [Example 265, [1,1'-Biphenyl]-4-butanoic acid, 4'-chloro-α-[3-(diethylamino)propyl]-γ-oxo-, trifluoroacetate] | 2900 nM |  |  | 42% | 
CSCCCC(CC(=O)c1ccc(-c2ccc(Cl)cc2)cc1)C(=O)O (stereo not drawn) [Example 266, [1,1'-Biphenyl]-4-butanoic acid, 4'-chloro-α-[3-(methylthio)propyl]-γ-oxo-] | 250 nM | 650 nM |  |  | 
CC(C)(CC(=O)c1ccc(-c2ccc(Cl)cc2)cc1)C(=O)O [Example 282, [1,1'-Biphenyl]-4-butanoic acid, 4'-chloro-α,α-dimethyl-γ-oxo-] |  |  | 2% | 0% | 
O=C(O)c1ccccc1C(=O)c1ccc(-c2ccc(Cl)cc2)cc1 [Example 287, Benzoic acid, 2-[(4'-chloro[1,1'-biphenyl]-4-yl)carbonyl]-] |  |  | 26% | 3% | 
O=C(O)C1C2C=CC(CC2)C1C(=O)c1ccc(-c2ccc(Cl)cc2)cc1 (centres unmarked) [Example 330] |  |  | 9% | 16% | 
CC(CC(=O)O)CC(=O)c1ccc(-c2ccc(Cl)cc2)cc1 (stereo not drawn) [Example 332, [1,1'-Biphenyl]-4-pentanoic acid, 4'-chloro-β-methyl-δ-oxo-, reference compound] |  |  | 37% | 41% | 

Compound | IC50 [1] | IC50 [2] | inhibition at 5 µM [1] | inhibition at 5 µM ([2]; at 5 μM) | inhibition at 5 µM [2]
O=C(O)CCCC(=O)c1ccc(-c2ccc(Cl)cc2)cc1 [Example 333, [1,1'-Biphenyl]-4-pentanoic acid, 4'-chloro-δ-oxo-, reference compound] |  |  | 62% | 25% | 
CC(C)(CC(=O)O)CC(=O)c1ccc(-c2ccc(Cl)cc2)cc1 [Example 334, [1,1'-Biphenyl]-4-pentanoic acid, 4'-chloro-β,β-dimethyl-δ-oxo-] |  | 6000 nM | 42% |  | 
CCC(C)(CC(=O)O)CC(=O)c1ccc(-c2ccc(Cl)cc2)cc1 (stereo not drawn) [Example 335, [1,1'-Biphenyl]-4-pentanoic acid, 4'-chloro-β-ethyl-β-methyl-δ-oxo-] |  | 6000 nM | 55% |  | 
O=C(O)CC1(CC(=O)c2ccc(-c3ccc(Cl)cc3)cc2)CCCC1 [Example 336, Cyclopentaneactic acid, 1-[2-(4'-chloro[1,1'-biphenyl]-4-yl)-2-oxoethyl]-] | 1400 nM | 600 nM |  |  | 
CC(C)(CCC(=O)c1ccc(-c2ccc(Cl)cc2)cc1)C(=O)O [Example 337, [1,1'-Biphenyl]-4-pentanoic acid, 4'-chloro-α,α-dimethyl-δ-oxo-] |  |  | 20% | 2% | 
CC(C)CC(CCC(=O)c1ccc(-c2ccc(Cl)cc2)cc1)C(=O)O (stereo not drawn) [Example 338, [1,1'-Biphenyl]-4-pentanoic acid, 4'-chloro-α-(2-methylpropyl)-δ-oxo-] |  |  | 24% | 32% | 
O=C(O)CC1(CC(=O)c2ccc(-c3ccc(Cl)cc3)cc2)CCCCC1 [Example 339, Cyclohexaneacetic acid, 1-[2-(4'-chloro[1,1'-biphenyl]-4-yl)-2-oxoethyl]-] | 1700 nM | 1500 nM |  |  | 
O=C(O)CCC1(C(=O)c2ccc(-c3ccc(Cl)cc3)cc2)CCCC1 [Example 340, Cyclopentanepropanoic acid, 1-[(4'-chloro[1,1'-biphenyl]-4-yl)carbonyl]-] |  |  | 14% | 21% | 
O=C(CCC(CCCc1ccccc1)C(=O)O)c1ccc(-c2ccc(Cl)cc2)cc1 (stereo not drawn) [Example 341, [1,1'-Biphenyl]-4-pentanoic acid, 4'-chloro-δ-oxo-α-(3-phenylpropyl)-] | 2400 nM | 3800 nM |  |  | 
CC(C)CC(CCC(=O)O)C(=O)c1ccc(-c2ccc(Cl)cc2)cc1 (centres unmarked) [Example 342] | 360 nM | 700 nM |  |  | 
O=C(O)CCC(CCCc1ccccc1)C(=O)c1ccc(-c2ccc(Cl)cc2)cc1 (centres unmarked) [Example 343, [1,1'-Biphenyl]-4-pentanoic acid, 4'-chloro-δ-oxo-γ-(phenylpropyl)-] | 500 nM | 680 nM |  |  | 
O=C(CC(CCCc1ccccc1)c1nnn[nH]1)c1ccc(-c2ccc(Br)cc2)cc1 (centres unmarked) [Example 344, 1-Hexanone, 1-(4'-bromo[1,1'-biphenyl]-4-yl)-6-phenyl-3-(1H-tetrazol-5-yl)-] |  |  | 11% | 14% | 
O=C(CC(CCCc1ccccc1)P(=O)(O)O)c1ccc(-c2ccc(Br)cc2)cc1 (centres unmarked) [Example 345, Phosphonic acid, [1-[2-(4'-bromo[1,1'-biphenyl]-4-yl)-2-oxoethyl]-4-phenylbutyl]-] | 5000 nM |  |  | 30% | 
CNC(=O)[C@@H]1CCCN1C(=O)C(CC(=O)c1ccc(-c2ccc(Cl)cc2)cc1)CC(C)C (stereo partly drawn) [Example 346, 2-Pyrrolidinecarboxamide, 1-[2-[2-(4'-chloro[1,1'-biphenyl]-4-yl)-2-oxoethyl]-4-metyl-1-oxopentyl]-N-methyl-, (2S)-] | 6000 nM |  |  | 34% | 
Cc1nc(-c2ccc(C(=O)CC(CC(C)C)C(=O)O)cc2)co1 (stereo not drawn) [Example 347, Benzenebutanoic acid, 4-(2-methyl-4-oxazolyl)-α-(2-methylpropyl)-γ-oxo-] |  |  | 12% | 0% | 
Cc1nc(-c2ccc(C(=O)CC(CC(C)C)C(=O)O)cc2)cs1 (stereo not drawn) [Example 348, Benzenebutanoic acid, α-(2-methylpropyl)-4-(2-methyl-4-thiazolyl)γ-oxo-] |  |  | 31% | 36% | 
O=C(CC(CCCc1ccccc1)C(=O)O)c1ccc(-c2ccc(Cl)cc2)s1 (stereo not drawn) [Example 349, 2-Thiophenebutanoic acid, 5-(4-chlorophenyl)-γ-oxo-α-(3-phenylpropyl)-] | 550 nM | 330 nM |  |  | 
O=C(CC(CCCc1ccccc1)C(=O)O)c1ccc(-c2ccc(Cl)cc2)o1 (stereo not drawn) [Example 350, 2-Furanbutanoic acid, 5-(4-chlorohenyl)-γ-oxo-α-(3-phenylpropyl)-] |  |  | 4% | 20% | 
